Reference: patent US20220211678A1, “USES OF (+)-A-DIHYDROTETRABENAZINE IN METHODS OF TREATING MOVEMENT DISORDER” (ADEPTIO PHARMACEUTICALS LIMITED, priority 2017, published 2022)

Tests used:
VMAT2 = molecular target: T1, VMAT2 (Homo sapiens, UniProt Q05940); assay: % VMAT2 blocking by PET scan 60-120 minutes after oral dosing of human volunteers (Example 1A); assay type: in vivo
T1 construct: from tissue; host or cells: brain of living human volunteers, measured by PET
Description: Complete blocking of VMAT2 is considered undesirable as this can lead to unwanted side effects, such as Parkinsonism. […] The levels of VMAT2 blocking can be determined by competitive binding studies using Positron Emission Tomography (PET). By co-administering a radioactive ligand with the compound of interest at various concentrations, the proportion of binding sites occupied can be determined (see for example, Matthews et al., “Positron emission tomography molecular imaging for drug development”, Br. J. Clin. Pharmacol., 73:2, 175-186). Accordingly, the invention also provides:
In four of the volunteers, blood sample were taken at 30, 60, 120 and 180 minutes after drug administration. Blood samples were not taken from the fifth volunteer. At 60 minutes after drug administration, PET scans were initiated and these were stopped at 120 minutes after drug administration.
The experiment was carried out at dosages of 7.5 mg, 15 mg and 22.5 mg.

amphetamine-induced rats = assay: Amphetamine-induced locomotor activity and stereotypic behaviour, open field arena (Example 2, Studies 1, 2, 4); assay type: in vivo, rat; details: for normalised total stereotypic behaviour, compared to vehicle-amphetamine group / total distance travelled, compared to vehicle-amphetamine group: amphetamine at t=30 min; for locomotor activity compared to the vehicle-amphetamine group (conclusion) / stereotypic behaviour compared to the vehicle-amphetamine group (conclusion): risperidone 1 mg/kg
Description: Dopaminergic models for Tourette's syndrome use systemic or focal administration of dopamine agonists such as amphetamine. After injection with amphetamine, a test animal expresses stereotypic behaviour. In particular, involvement of a dopaminergic system implicated in Tourette's syndrome wild type mice and rats can be stimulated with amphetamine and the resulting hyperactivity and stereotypies can be reversed with dopamine antagonists such as risperidone and haloperidol (Tourette's syndrome—Animal Models for Screening, Charles River Discovery Research Services, Finland).
All animal experiments were carried out according to the National Institute of Health (NIH) guidelines for the care and use of laboratory animals, and approved by the National Animal Experiment Board, Finland. Male CD (Charles River Laboratories, Germany) at weight range of 200-250 g (165-200 g upon arrival) were used for the experiments. Animals were housed at a standard temperature (22±1° C.) and in a light-controlled environment (lights on from 7 am to 8 pm) with ad libitum access to food and water.
Locomotor activity of the rats was tested in open field arena. The open field test was performed during the rat light cycle and under a normal lighting evenly distributed to the test chambers. The paths of the rats were recorded by activity monitor (Med. Associates Inc.).
Dosing the vehicle, vehicle-amphetamine, (+)-α-DHTBZ or risperidone was done prior to LMA test. The rats were placed in the centre of the arena, and the path was recorded for 60 minutes.
(§1) Animals were grouped as follows: • Group 1: 10 rats treated with Vehicle (t=0 min) and Vehicle (t=30 min) • Group 2: 10 rats treated with Vehicle (t=0 min) and Amphetamine (t=30 min) • Group 3: 10 rats treated with (+)-α-DHTBZ 0.5 mg/kg (t=0 min) and Amphetamine (t=30 min) • Group 4: 10 rats treated with (+)-α-DHTBZ 1 mg/kg (t=0 min) and Amphetamine (t=30 min) • Group 5: 10 rats treated with (+)-α-DHTBZ 1.5 mg/kg (t=0 min) and Amphetamine (t=30 min) • Group 6: 10 rats treated with (+)-α-DHTBZ 2 mg/kg (t=0 min) and Amphetamine (t=30 min) • Group 7: 10 rats treated with risperidone 1 mg/kg (t=0 min) and Amphetamine (t=30 min)
Rats dosed with either vehicle, (+)-α-DHTBZ 0.5 mg/kg, (+)-α-DHTBZ 1 mg/kg, (+)-α-DHTBZ 1.5 mg/kg, (+)-α-DHTBZ 2 mg/kg or Risperidone 1 mg/kg were subjected to LMA testing first for 30 min and then for 60 minutes after vehicle or amphetamine challenge. Resulting locomotor activity was evaluated in 3 min bins and as a total over the testing period.
Rats dosed with either vehicle, (+)-α-DHTBZ 0.5 mg/kg, (+)-α-DHTBZ 1 mg/kg, (+)-α-DHTBZ 1.5 mg/kg, (+)-α-DHTBZ 2 mg/kg or Risperidone 1 mg/kg were subjected to LMA testing first for 30 min and then for 60 minutes after vehicle or amphetamine challenge. Resulting stereotypic activity was evaluated in 3 min bins and as a total over the testing period.
Animals were grouped as follows: • Group 1: 10 rats treated with Vehicle (t=0 min) and Vehicle (t=30 min) • Group 2: 10 rats treated with Vehicle (t=0 min) and Amphetamine (t=30 min) • Group 3: 10 rats treated with (+)-α-DHTBZ 0.1 mg/kg (t=0 min) and Amphetamine (t=30 min) • Group 4: 10 rats treated with (+)-α-DHTBZ 0.25 mg/kg (t=0 min) and Amphetamine (t=30 min) • Group 5: 10 rats treated with risperidone 1 mg/kg (t=0 min) and Amphetamine (t=30 min)
as §1, with “(+)-α-DHTBZ 1” for “(+)-α-DHTBZ 0.5”, “(+)-α-DHTBZ 1.5” for “(+)-α-DHTBZ 1”, “with Valbenazine 1” for “with (+)-α-DHTBZ 1.5”, “with Valbenazine 1.5” for “with (+)-α-DHTBZ 2”

[1] = Study 1, (+)-α-DHTBZ at all the tested doses (0.5, 1, 1.5, 2 mg/kg)

T1 sequence (Q05940 whole entry): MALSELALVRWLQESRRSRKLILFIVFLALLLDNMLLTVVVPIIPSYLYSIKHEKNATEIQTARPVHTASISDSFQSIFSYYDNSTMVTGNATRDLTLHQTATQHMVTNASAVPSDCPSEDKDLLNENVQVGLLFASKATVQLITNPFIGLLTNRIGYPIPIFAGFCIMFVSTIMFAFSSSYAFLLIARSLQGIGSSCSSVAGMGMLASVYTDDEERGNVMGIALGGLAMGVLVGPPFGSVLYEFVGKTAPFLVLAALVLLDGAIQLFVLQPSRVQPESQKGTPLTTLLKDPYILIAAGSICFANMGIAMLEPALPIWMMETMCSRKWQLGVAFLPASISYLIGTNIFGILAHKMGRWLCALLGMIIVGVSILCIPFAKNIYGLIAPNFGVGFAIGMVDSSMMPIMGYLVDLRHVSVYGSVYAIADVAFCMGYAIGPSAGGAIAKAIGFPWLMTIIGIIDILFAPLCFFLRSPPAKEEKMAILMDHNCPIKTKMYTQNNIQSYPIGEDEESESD

In the case of `COc1cc2c(cc1OC)[C@H]1C[C@@H](O)[C@H](CC(C)C)CN1CC2` [(+)-α-dihydrotetrabenazine, (R,R,R)-3-isobutyl-9,10-dimethyloxy-1,3,4,5,7,11b-hexahydro-2H-pyrido[2,1-a]isoquinolin-2-ol], the “% VMAT2 blocking” value (VMAT2; 7.5 mg oral, PET scan 60-120 min after administration, subject 1 (112 kg)) was 54%, the “% VMAT2 blocking” value (VMAT2; 7.5 mg oral, PET scan 60-120 min after administration, subject 2 (76 kg)) was 73% and the “% VMAT2 blocking” value (VMAT2; 7.5 mg oral, PET scan 60-120 min after administration, subject 3 (129 kg)) was 62%. The “% VMAT2 blocking” value (VMAT2; 7.5 mg oral, PET scan 60-120 min after administration, subject 4 (59 kg)) was 84%, the “% VMAT2 blocking” value (VMAT2; 7.5 mg oral, PET scan 60-120 min after administration, subject 5 (91 kg)) was 73% and the “% VMAT2 blocking” value (VMAT2; 7.5 mg oral, PET scan 60-120 min after administration, subject 6 (68 kg)) was 60%. For the same compound, the “% VMAT2 blocking” value (VMAT2; 15 mg oral, PET scan 60-120 min after administration, subject 1 (112 kg)) was 73%, the “% VMAT2 blocking” value (VMAT2; 15 mg oral, PET scan 60-120 min after administration, subject 2 (76 kg)) was 83% and the “% VMAT2 blocking” value (VMAT2; 15 mg oral, PET scan 60-120 min after administration, subject 3 (129 kg)) was 69%. The “% VMAT2 blocking” value (VMAT2; 15 mg oral, PET scan 60-120 min after administration, subject 4 (59 kg)) was 89%, the “% VMAT2 blocking” value (VMAT2; 15 mg oral, PET scan 60-120 min after administration, subject 5 (91 kg)) was 79% and the “% VMAT2 blocking” value (VMAT2; 15 mg oral, PET scan 60-120 min after administration, subject 6 (68 kg)) was 76%. For the same compound, the “% VMAT2 blocking” value (VMAT2; 22.5 mg oral, PET scan 60-120 min after administration, subject 1 (112 kg)) was 75%, the “% VMAT2 blocking” value (VMAT2; 22.5 mg oral, PET scan 60-120 min after administration, subject 2 (76 kg)) was 82% and the “% VMAT2 blocking” value (VMAT2; 22.5 mg oral, PET scan 60-120 min after administration, subject 3 (129 kg)) was 74%. The “% VMAT2 blocking” value (VMAT2; 22.5 mg oral, PET scan 60-120 min after administration, subject 5 (91 kg)) was 82%, the “% VMAT2 blocking” value (VMAT2; 22.5 mg oral, PET scan 60-120 min after administration, subject 6 (68 kg)) was 62% and the “% VMAT2 blocking” value (VMAT2; heavier individuals, doses as low as 7.5 mg) was “at least 50%”. For the same compound, the “normalised total stereotypic behaviour, compared to vehicle-amphetamine group” value (amphetamine-induced rats; Study 1, 0.5 mg/kg) was “significantly different”, the “normalised total stereotypic behaviour, compared to vehicle-amphetamine group” value (amphetamine-induced rats; Study 1, 1 mg/kg) was “significantly different” and the “normalised total stereotypic behaviour, compared to vehicle-amphetamine group” value (amphetamine-induced rats; Study 1, 1.5 mg/kg) was “significantly different”. For the same compound, the “normalised total stereotypic behaviour, compared to vehicle-amphetamine group” value (amphetamine-induced rats; Study 1, 2 mg/kg) was “significantly different”, the “locomotor activity compared to the vehicle-amphetamine group (conclusion)” value (amphetamine-induced rats; [1]) was “lower locomotor activity” and the “stereotypic behaviour compared to the vehicle-amphetamine group (conclusion)” value (amphetamine-induced rats; [1]) was “reduced stereotypic behaviour”. The “normalised total stereotypic behaviour, compared to vehicle-amphetamine group” value (amphetamine-induced rats; Study 2, 0.1 mg/kg) was “significantly different”, the “normalised total stereotypic behaviour, compared to vehicle-amphetamine group” value (amphetamine-induced rats; Study 2, 0.25 mg/kg) was “significantly different” and the “locomotor activity compared to the vehicle-amphetamine group (conclusion)” value (amphetamine-induced rats; Study 2, (+)-α-DHTBZ at 0.25 mg/kg) was “lower locomotor activity”. The “stereotypic behaviour compared to the vehicle-amphetamine group (conclusion)” value (amphetamine-induced rats; Study 2, (+)-α-DHTBZ at both the tested doses (0.1, 0.25 mg/kg)) was “reduced stereotypic behaviour”, the “locomotor activity compared to the vehicle-amphetamine group and the corresponding dose of Valbenazine (conclusion)” value (amphetamine-induced rats; Study 4, 1 mg/kg and 1.5 mg/kg) was “lower locomotor activity” and the “normalised total stereotypic behaviour, compared to vehicle-amphetamine group” value (amphetamine-induced rats; Study 4, 1 mg/kg) was “significantly different”. For the same compound, the “total distance travelled, compared to vehicle-amphetamine group” value (amphetamine-induced rats; Study 4, 1 mg/kg) was “significantly different”, the “normalised total stereotypic behaviour, compared to vehicle-amphetamine group” value (amphetamine-induced rats; Study 4, 1.5 mg/kg) was “significantly different” and the “total distance travelled, compared to vehicle-amphetamine group” value (amphetamine-induced rats; Study 4, 1.5 mg/kg) was “significantly different”. For the same compound, the “stereotypic behaviour compared to the vehicle-amphetamine group and the corresponding dose of Valbenazine (conclusion)” value (amphetamine-induced rats; Study 4, both the tested doses (1 mg/kg and 1.5 mg/kg)) was “reduced stereotypic behaviour”.
